Reference: ChEMBL document CHEMBL4321854, “Discovery of a First-in-Class Mitogen-Activated Protein Kinase Kinase 1/2 Degrader” (J Med Chem, 2019)
Calls of active or inactive are those of the source. The rule behind the calls is not given here.

How the values were obtained:
[1] = target: T1, von Hippel-Lindau disease tumor suppressor/Dual specificity mitogen-activated protein kinase kinase 2/Dual specificity mitogen-activated protein kinase kinase 1 (Homo sapiens) (UniProt P36507+Q02750+P40337); test: Protac activity against VHL/MEK1/2 in human HT-29 cells harboring with BRAF V600E variant assessed as reduction in phosphorylation of MEK at S218/222 residues at 0.3 uM incubated for 6 days by Western blot analysis; type: cell-based
[2] = target: T1, von Hippel-Lindau disease tumor suppressor/Dual specificity mitogen-activated protein kinase kinase 2/Dual specificity mitogen-activated protein kinase kinase 1 (Homo sapiens); test: Protac activity against VHL/MEK1/2 in human HT-29 cells harboring with BRAF V600E variant assessed as phosphorylation of MEK at S218/222 residues at 0.3 uM pretreated with VHL ligand, VH 032 for 2 hrs followed by incubation with compound for 10 hrs by Western blot analysis; type: cell-based
[3] = target: T2, von Hippel-Lindau disease tumor suppressor/Dual specificity mitogen-activated protein kinase kinase 2 (Homo sapiens) (UniProt P36507+P40337); test: Protac activity against VHL/MEK2 in human COLO205 cells harboring with BRAF V600E variant assessed as degradation of MEK2 at 3 to 5 uM after 24 hrs by Western blot analysis; type: cell-based
[4] = target: T1, von Hippel-Lindau disease tumor suppressor/Dual specificity mitogen-activated protein kinase kinase 2/Dual specificity mitogen-activated protein kinase kinase 1 (Homo sapiens); test: Protac activity against VHL/MEK1/2 in human HT-29 cells harboring with BRAF V600E variant assessed as phosphorylation of MEK at S218/222 residues at 0.3 uM pretreated with MEK1/2 inhibitor, PD0325901 for 2 hrs followed by incubation with compound for 2 hrs by Western blot analysis; type: cell-based
[5] = target: T1, von Hippel-Lindau disease tumor suppressor/Dual specificity mitogen-activated protein kinase kinase 2/Dual specificity mitogen-activated protein kinase kinase 1 (Homo sapiens); test: Protac activity against VHL/MEK1/2 in human HT-29 cells harboring with BRAF V600E variant assessed as phosphorylation of ERK at T202/Y204 residues at 0.3 uM pretreated with VHL ligand, VH 032 for 2 hrs followed by incubation with compound for 10 hrs by Western blot analysis; type: cell-based
HT-29 = test: Effect on total ERK protein expression in human HT-29 cells at 0.001 to 5 uM after 24 hrs by Western blot analysis; type: functional, cell-based
[6] = target: T1, von Hippel-Lindau disease tumor suppressor/Dual specificity mitogen-activated protein kinase kinase 2/Dual specificity mitogen-activated protein kinase kinase 1 (Homo sapiens); test: Protac activity against VHL/MEK1/2 in human SK-MEL-28 cells harboring with BRAF V600E variant assessed as phosphorylation of MEK at S218/222 residues at 0.3 uM pretreated with MEK1/2 inhibitor, PD0325901 for 2 hrs followed by incubation with compound for 2 hrs by Western blot analysis; type: cell-based
[7] = target: T3, von Hippel-Lindau disease tumor suppressor/Dual specificity mitogen-activated protein kinase kinase 1 (Homo sapiens) (UniProt Q02750+P40337); test: Protac activity against VHL/MEK1 in human SK-MEL-28 cells harboring with BRAF V600E variant assessed as degradation of MEK1 by measuring reduction in MEK1 protein level at 0.3 uM after 4 hrs by Western blot analysis relative to control; type: cell-based; set-up: scale not given: the % may be the effect or the level left
[8] = target: T2, von Hippel-Lindau disease tumor suppressor/Dual specificity mitogen-activated protein kinase kinase 2 (Homo sapiens); test: (§1) Protac activity against VHL/MEK2 in human HT-29 cells harboring with BRAF V600E variant assessed as degradation of MEK2 by measuring MEK2 protein level at 0.3 uM pretreated with VHL ligand, VH 032 for 2 hrs followed by incubation with compound for 10 hrs by Western blot analysis; type: cell-based
[9] = target: T1, von Hippel-Lindau disease tumor suppressor/Dual specificity mitogen-activated protein kinase kinase 2/Dual specificity mitogen-activated protein kinase kinase 1 (Homo sapiens); test: Protac activity against VHL/MEK1/2 in human HT-29 cells harboring with BRAF V600E variant assessed as phosphorylation of MEK at S218/222 residues at 0.3 uM pretreated with proteasome inhibitor, MG-132 for 2 hrs followed by incubation with compound for 10 hrs by Western blot analysis; type: cell-based
[10] = target: T2, von Hippel-Lindau disease tumor suppressor/Dual specificity mitogen-activated protein kinase kinase 2 (Homo sapiens); test: Protac activity against VHL/MEK2 in human HT-29 cells harboring with BRAF V600E variant assessed as degradation of MEK2 by measuring reduction in MEK2 protein level at 0.1 uM after 10 hrs by LC-MS based Volcano plot analysis; type: cell-based
[11] = target: T3, von Hippel-Lindau disease tumor suppressor/Dual specificity mitogen-activated protein kinase kinase 1 (Homo sapiens); test: Protac activity against VHL/MEK1 in human SK-MEL-28 cells harboring with BRAF V600E variant assessed as degradation of MEK1 at 0.1 to 0.3 uM after 4 hrs by Western blot analysis; type: cell-based
[12] = target: T1, von Hippel-Lindau disease tumor suppressor/Dual specificity mitogen-activated protein kinase kinase 2/Dual specificity mitogen-activated protein kinase kinase 1 (Homo sapiens); test: Protac activity against VHL/MEK1/2 in human HT-29 cells harboring with BRAF V600E variant assessed as reduction in phosphorylation of MEK at S218/222 residues at 0.1 to 0.3 after >= 2 hrs by Western blot analysis; type: cell-based
[13] = target: T3, von Hippel-Lindau disease tumor suppressor/Dual specificity mitogen-activated protein kinase kinase 1 (Homo sapiens); test: as §1, with “VHL/MEK1” for “VHL/MEK2”, “SK-MEL-28” for “HT-29”, “MEK1” for “MEK2”, “NEDD8-activating enzyme inhibitor, MLN4924” for “VHL ligand, VH 032”; type: cell-based
[14] = target: T2, von Hippel-Lindau disease tumor suppressor/Dual specificity mitogen-activated protein kinase kinase 2 (Homo sapiens); test: Protac activity against VHL/MEK2 in human SK-MEL-28 cells harboring with BRAF V600E variant assessed as degradation of MEK2 by measuring MEK2 protein level at 0.3 uM pretreated with proteasome inhibitor, MG-132 for 2 hrs followed by incubation with compound for 10 hrs by Western blot analysis; type: cell-based
[15] = Ratio of Plasma concentration in Swiss albino mouse at 50 mg/kg, ip measured after 8 hrs to GI50 for antiproliferative activity against human UACC257 cells; type: organism-based; conditions: in vivo
[16] = target: T3, von Hippel-Lindau disease tumor suppressor/Dual specificity mitogen-activated protein kinase kinase 1 (Homo sapiens); test: Protac activity against VHL/MEK1 in human SK-MEL-28 cells harboring with BRAF V600E variant assessed as degradation of MEK1 by measuring MEK1 protein level at 0.3 uM pretreated with MEK1/2 inhibitor, PD0325901 for 2 hrs followed by incubation with compound for 10 hrs by Western blot analysis; type: cell-based
[17] = Toxicity in Swiss albino mouse assessed as effect on clinical signs at 50 mg/kg, ip; type: organism-based; conditions: in vivo
[18] = target: von Hippel-Lindau disease tumor suppressor/Cullin-9 (Homo sapiens) (UniProt P40337+Q8IWT3); test: Protac activity against VHL/cullin9 in human HT-29 cells harboring with BRAF V600E variant assessed as reduction in Cullin9 protein level at 0.1 uM after 10 hrs by LC-MS based Volcano plot analysis; type: cell-based
[19] = target: von Hippel-Lindau disease tumor suppressor/Leukocyte receptor cluster member 8 (Homo sapiens) (UniProt P40337+Q96PV6); test: Protac activity against VHL/LENG8 in human HT-29 cells harboring with BRAF V600E variant assessed as reduction in LENG8 protein level at 0.1 uM after 10 hrs by LC-MS based Volcano plot analysis; type: cell-based
[20] = target: T1, von Hippel-Lindau disease tumor suppressor/Dual specificity mitogen-activated protein kinase kinase 2/Dual specificity mitogen-activated protein kinase kinase 1 (Homo sapiens); test: Protac activity against VHL/MEK1/2 in human HT-29 cells harboring with BRAF V600E variant assessed as reduction in phosphorylation of ERK at T202/Y204 residues at 0.3 uM after 24 to 144 hrs by Western blot analysis; type: cell-based
[21] = Ratio of Plasma concentration in Swiss albino mouse at 50 mg/kg, ip measured after 8 hrs to GI50 for antiproliferative activity against human HT-29 cells; type: organism-based; conditions: in vivo
[22] = target: T1, von Hippel-Lindau disease tumor suppressor/Dual specificity mitogen-activated protein kinase kinase 2/Dual specificity mitogen-activated protein kinase kinase 1 (Homo sapiens); test: Protac activity against VHL/MEK1/2 in human HT-29 cells harboring with BRAF V600E variant assessed as phosphorylation of ERK at T202/Y204 residues at 0.3 uM pretreated with MEK1/2 inhibitor, PD0325901 for 2 hrs followed by incubation with compound for 10 hrs by Western blot analysis; type: cell-based
[23] = target: T2, von Hippel-Lindau disease tumor suppressor/Dual specificity mitogen-activated protein kinase kinase 2 (Homo sapiens); test: Protac activity against VHL/MEK2 in human HT-29 cells harboring with BRAF V600E variant assessed as degradation of MEK2 by measuring reduction in MEK2 protein level at 0.1 to 0.3 uM after 2 hrs by Western blot analysis; type: cell-based

T2 sequence (P36507 whole entry, looked up): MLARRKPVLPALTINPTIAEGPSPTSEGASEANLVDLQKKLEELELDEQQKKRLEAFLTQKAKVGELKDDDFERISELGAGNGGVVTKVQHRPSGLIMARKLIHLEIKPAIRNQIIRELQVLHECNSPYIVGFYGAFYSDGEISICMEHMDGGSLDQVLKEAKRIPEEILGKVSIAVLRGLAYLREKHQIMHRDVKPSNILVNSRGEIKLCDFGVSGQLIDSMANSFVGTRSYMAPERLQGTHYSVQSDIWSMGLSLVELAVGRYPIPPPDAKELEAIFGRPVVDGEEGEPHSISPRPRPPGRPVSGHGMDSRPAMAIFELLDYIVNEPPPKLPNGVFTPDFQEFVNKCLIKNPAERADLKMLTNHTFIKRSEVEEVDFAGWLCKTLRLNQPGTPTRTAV
T2 sequence (P40337 whole entry, looked up): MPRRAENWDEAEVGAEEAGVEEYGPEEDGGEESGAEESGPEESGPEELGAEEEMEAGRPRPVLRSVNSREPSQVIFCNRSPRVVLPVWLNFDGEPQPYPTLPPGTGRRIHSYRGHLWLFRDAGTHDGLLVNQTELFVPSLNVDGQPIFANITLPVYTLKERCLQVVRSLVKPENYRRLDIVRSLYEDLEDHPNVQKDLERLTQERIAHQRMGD
T1 sequence (P36507 whole entry, looked up): as the sequence (P36507 whole entry, looked up) above
T1 sequence (P40337 whole entry, looked up): as the sequence (P40337 whole entry, looked up) above
T1 sequence (Q02750 whole entry, looked up): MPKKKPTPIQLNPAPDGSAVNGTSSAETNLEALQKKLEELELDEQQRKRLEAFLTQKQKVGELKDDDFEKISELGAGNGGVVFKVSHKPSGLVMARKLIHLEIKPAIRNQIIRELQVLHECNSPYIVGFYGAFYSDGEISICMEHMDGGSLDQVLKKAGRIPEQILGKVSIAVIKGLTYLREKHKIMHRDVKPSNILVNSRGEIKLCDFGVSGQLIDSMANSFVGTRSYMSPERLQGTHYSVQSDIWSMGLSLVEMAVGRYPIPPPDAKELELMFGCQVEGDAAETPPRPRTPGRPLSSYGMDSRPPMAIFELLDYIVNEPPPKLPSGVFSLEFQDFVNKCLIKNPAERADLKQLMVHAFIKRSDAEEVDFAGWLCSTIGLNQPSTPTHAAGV
T3 sequence (P40337 whole entry, looked up): as the sequence (P40337 whole entry, looked up) above
T3 sequence (Q02750 whole entry, looked up): as the sequence (Q02750 whole entry, looked up) above
Sequence of von Hippel-Lindau disease tumor suppressor/Leukocyte receptor cluster member 8 (Homo sapiens) (P40337 whole entry, looked up): as the sequence (P40337 whole entry, looked up) above
Sequence of von Hippel-Lindau disease tumor suppressor/Leukocyte receptor cluster member 8 (Homo sapiens) (Q96PV6 whole entry, looked up): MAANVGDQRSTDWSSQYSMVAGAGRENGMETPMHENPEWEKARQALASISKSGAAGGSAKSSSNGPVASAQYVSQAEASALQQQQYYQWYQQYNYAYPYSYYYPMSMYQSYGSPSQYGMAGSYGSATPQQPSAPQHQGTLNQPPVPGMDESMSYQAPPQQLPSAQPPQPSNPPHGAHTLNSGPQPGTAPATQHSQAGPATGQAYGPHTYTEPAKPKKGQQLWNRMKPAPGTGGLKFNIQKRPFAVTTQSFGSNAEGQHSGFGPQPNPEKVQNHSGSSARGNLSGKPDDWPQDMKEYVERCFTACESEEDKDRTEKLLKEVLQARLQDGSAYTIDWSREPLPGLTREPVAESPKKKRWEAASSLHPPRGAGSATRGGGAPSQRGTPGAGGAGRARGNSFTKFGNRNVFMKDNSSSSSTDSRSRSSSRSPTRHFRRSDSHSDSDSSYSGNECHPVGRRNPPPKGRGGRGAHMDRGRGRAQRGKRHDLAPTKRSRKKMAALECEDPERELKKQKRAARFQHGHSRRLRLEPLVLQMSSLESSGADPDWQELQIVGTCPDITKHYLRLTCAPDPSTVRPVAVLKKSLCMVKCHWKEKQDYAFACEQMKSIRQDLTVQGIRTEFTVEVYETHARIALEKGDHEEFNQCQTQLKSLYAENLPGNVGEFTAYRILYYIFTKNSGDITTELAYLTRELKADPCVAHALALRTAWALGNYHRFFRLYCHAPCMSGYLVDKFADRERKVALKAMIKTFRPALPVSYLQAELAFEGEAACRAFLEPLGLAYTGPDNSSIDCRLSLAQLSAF

Question: With `Cc1ncsc1-c1ccc([C@H](C)NC(=O)[C@@H]2C[C@@H](O)CN2C(=O)[C@@H](NC(=O)CCCCCCCCCCNCCCONC(=O)c2ccc(F)c(F)c2Nc2ccc(I)cc2F)C(C)(C)C)cc1` as the molecule, how does the Activity [1] read?
Answer: Active

Question: What about the Activity [2] of the same molecule?
Answer: inactive

Question: What about the Activity [3] of the same molecule?
Answer: Active

Question: What about the Activity [4] of the same molecule?
Answer: inactive

Question: And the Activity [5]?
Answer: inactive

Question: What about the Activity (HT-29) of the same molecule?
Answer: inactive

Question: And the Activity [6]?
Answer: inactive

Question: And the Activity [7]?
Answer: > 50%

Question: What about the Activity [8] of the same molecule?
Answer: inactive

Question: And the Activity [9]?
Answer: inactive

Question: And the Activity [10]?
Answer: Active

Question: And the Activity [11]?
Answer: Active

Question: And the Activity [12]?
Answer: Active

Question: And the Activity [13]?
Answer: inactive

Question: What about the Activity [14] of the same molecule?
Answer: inactive

Question: What about the Ratio [15] of the same molecule?
Answer: 3 to 20

Question: And the Activity [16]?
Answer: inactive

Question: And the Activity [17]?
Answer: Non-Toxic

Question: And the Activity [18]?
Answer: Active

Question: And the Activity [19]?
Answer: Active

Question: What about the Activity [20] of the same molecule?
Answer: Active

Question: And the Ratio [21]?
Answer: 3 to 20

Question: And the Activity [22]?
Answer: inactive

Question: And the Activity [23]?
Answer: Active
